Literature values in patent publication US5211943A, “Pharmaceutical preparation for administration by percutaneous absorption and a method for their manufacture” (Chugai Seiyaku Kabushili Kaisha, priority 1986, dated 1993).

What was measured:
[1] = high temperature or high humidity, or in solution; Iyakuhin Kenkyu vol. 14, 1983
coronary vessels = settings: Japanese Patent Publication 58-17463
[2] = oral; rapid increase of blood level

SMILES: O=C(NCCO[N+](=O)[O-])c1cccnc1 [Nicorandil, N-(2-hydroxyethyl)nicotinamide nitrate]
- stability [1]: relatively unstable
- effect on coronary vessels, coronary veins and heart (coronary vessels): acts to dilate the coronary vessels and to inhibit contractions of the coronary veins, without much effect on the blood flow through the heart or on heart function
- side effects when given orally [2]: orthostatic hypotension and headache
